A short description of data set [1]: Oral administration, pharmacokinetics in mice. Particulars: oral preparation in lipophilic emulsion, single and multiple dose, murine model. The class given is in vivo.
For data set [2] the following is noted: cited from earlier work.
For data set [3], the system named is superoxide anion. Conditions: mM concentrations, aqueous phase; cited from earlier work.
For data set [4] the following is noted: doses up to 75 mg/kg, rat; cited from earlier work.
For data set [5] the following is noted: 50 mg/kg, canines; cited from earlier work.
For data set [6] the following is noted: mice; cited from earlier work.
For data set [7], the system named is CX43. Conditions: aqueous ethanolic formulation, carcinogen-promoted 10T1/2 cells; cited from earlier work.
Data set [8] deals with superoxide anion. As to the kind of experiment: Direct superoxide anion scavenging by EPR spectroscopy (DEPMPO spin trap), PMA-stimulated isolated human PMNs. The format is cell-based. Conditions: aqueous phase; statistical mixture and individual stereoisomers. As to the method: Leukocyte Isolation and Preparation. Human polymorphonuclear leukocytes (PMNs) were isolated from freshly sampled venous blood of a single volunteer by Percoll density gradient centrifugation as described previously. Briefly, each 10 mL of whole blood was mixed with 0.8 mL of 0.1 M EDTA and 25 mL of saline. The diluted blood was then layered over 9 mL of Percoll at a specific density of 1.080 g/mL. After centrifugation at 400×g for 20 min at 20° C., the plasma, mononuclear cell, and Percoll layers were removed. Erythrocytes were subsequently lysed by addition of 18 mL of ice-cold water for 30 s, followed by 2 mL of 10×PIPES buffer (25 mM PIPES, 110 mM NaCl, and 5 mM KCl, titrated to pH 7.4 with NaOH). Cells were then pelleted at 4° C., the supernatant was decanted, and the procedure was repeated. After the second hypotonic cell lysis, cells were washed twice with PAG buffer [PIPES buffer containing 0.003% human serum albumin (HSA) and 0.1% glucose]. Afterward, PMNs were counted by light microscopy on a hemocytometer. The isolation yielded PMNs with a purity of >95%. The final pellet was then suspended in PAG-CM buffer (PAG buffer with 1 mM CaCl2 and 1 mM MgCl2).
EPR Measurements. All EPR measurements were performed using a Bruker ER 300 EPR spectrometer operating at X-band with a TM110 cavity as previously described. The microwave frequency was measured with a Model 575 microwave counter (EIP Microwave, Inc., San Jose, Calif.). To measure superoxide anion (O2) generation from phorbol-ester (PMA)-stimulated PMNs, EPR spin-trapping studies were performed using the spin trap DEPMPO (Oxis, Portland, Oreg.) at 10 mM. 1×10^6 PMNs were stimulated with PMA (1 ng/mL) and loaded into capillary tubes for EPR measurements. To determine the radical scavenging ability of 3 and 9 in aqueous and ethanolic formulations, PMNs were pre-incubated for 5 minutes with test compound, followed by PMA stimulation.
Instrument settings used in the spin-trapping experiments were as follows: modulation amplitude, 0.32 G; time constant, 0.16 s; scan time, 60 s; modulation frequency, 100 kHz; microwave power, 20 milliwatts; and microwave frequency, 9.76 GHz. The samples were placed in a quartz EPR flat cell, and spectra were recorded. The component signals in the spectra were identified and quantified as reported previously.

Data set [9] can be described thus: Cardiac ischemia-reperfusion injury, experimental infarction model. Particulars: intravenous pretreatment, rodents, highest dose tested. The format is in vivo, rat.
Data set [10] deals with human serum albumin (HSA) (Homo sapiens, UniProt P02768). The experiment in a line: Plasma-protein binding studies in vitro.

The structures appear in SMILES notation. “Also recorded” adds a separate entry of the source. Where a name gives a salt, the structure may show the parent alone. Read-outs that look alike come from different tables or passages of the source.

Chain of human serum albumin (HSA) (P02768 25-609): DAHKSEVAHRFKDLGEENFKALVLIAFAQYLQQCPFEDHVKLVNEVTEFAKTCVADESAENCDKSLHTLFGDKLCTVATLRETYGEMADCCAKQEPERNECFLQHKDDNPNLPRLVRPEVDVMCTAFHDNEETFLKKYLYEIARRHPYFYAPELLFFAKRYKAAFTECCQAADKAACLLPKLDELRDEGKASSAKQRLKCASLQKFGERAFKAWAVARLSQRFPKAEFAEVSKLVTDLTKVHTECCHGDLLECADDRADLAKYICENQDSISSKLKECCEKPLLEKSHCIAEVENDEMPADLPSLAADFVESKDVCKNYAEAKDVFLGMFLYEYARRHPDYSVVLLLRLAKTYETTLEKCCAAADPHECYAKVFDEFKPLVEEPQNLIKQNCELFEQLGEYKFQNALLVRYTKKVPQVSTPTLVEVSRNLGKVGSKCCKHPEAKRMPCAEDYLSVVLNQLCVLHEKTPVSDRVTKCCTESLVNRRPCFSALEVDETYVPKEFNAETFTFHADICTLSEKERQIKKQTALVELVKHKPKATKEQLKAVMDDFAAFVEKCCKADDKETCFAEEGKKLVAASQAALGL

Turning to `CC1=C(/C=C/C(C)=C/C=C/C(C)=C/C=C/C=C(C)/C=C/C=C(C)/C=C/C2=C(C)C(=O)C(OC(=O)CCC(=O)O)CC2(C)C)C(C)(C)CC(OC(=O)CCC(=O)O)C1=O` (racemic) [dAST, disodium salt disuccinate ester of astaxanthin], in data set [1], the “plasma and tissue levels of nonesterified astaxanthin” value was “significant plasma and tissue levels of nonesterified astaxanthin were achieved”. For the same compound, the “concentration of pseudo-solution in water” value in [2] is listed as “up to 8 mg/ml; also recorded: approximately 10 mM”. Also, in data set [3], the “inhibition of the induced superoxide anion” value is listed as “complete inhibition”. The “protection against cardiac ischemia-reperfusion (I/R) injury” value in data set [4] and in data set [5] was “significantly protect against cardiac ischemia-reperfusion (I/R) injury” in each case. Moreover, the “absorption and tissue distribution after oral administration” value in [6] is “rapid absorption of the compound, its cleavage to free astaxanthin, and accumulation in certain target tissues”. Further, in [7], the “expression of CX43 and GJIC” value was “increased expression of the connexin protein CX43 and GJIC”.

For `CC1=C(/C=C/C(C)=C/C=C/C(C)=C/C=C/C=C(C)/C=C/C=C(C)/C=C/C2=C(C)C(=O)C(OC(=O)CCC(=O)O)CC2(C)C)C(C)(C)CC(OC(=O)CCC(=O)O)C1=O` (stereo not shown) [dAST, disodium salt disuccinate ester of astaxanthin], the “direct scavenging of superoxide anion” value in [8] is given as “potent direct scavengers of superoxide anion in the aqueous phase”. Also, the myocardial salvage result in [9] is recorded as “up to 56%”.

On to `CC(C=CC=C(C)C=CC1=C(C)C(=O)C(OC(=O)CCC(=O)[O-])CC1(C)C)=CC=CC=C(C)C=CC=C(C)C=CC1=C(C)C(=O)C(OC(=O)CCC(=O)[O-])CC1(C)C.[Na+].[Na+]` [meso-(3R,3′S)-disodium disuccinate astaxanthin], for which the “binding to human serum albumin” value in data set [10] was “bound immediately and preferentially to human serum albumin (HSA) at a binding site”.

The record behind these values is patent US20060276372A1, “Carotenoids, carotenoid analogs, or carotenoid derivatives for the treatment of proliferative disorders” (priority 2005, published 2006).
